In patent US8822517B2, “Arylosulfonamides for the treatment of CNS diseases” (Adamed SP. Z O.O., priority 2010, dated 2014):

Experiments:
[1] = target: T1, serotonine transporter (SERT) receptor (Homo sapiens, UniProt P31645); test: Binding assay SERT (h), [3H]imipramine, CHO cells; details: read-out: SERT [%]
T1 construct: expressed in transfected cells; host or cells: CHO cells
Procedure, shortened: (§1)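 Binding read by scintillation counting. Non-specific component defined by excess unlabelled ligand and removed from total counts. Compounds at 1×10^−6 M.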

sigma σ receptor = test: Binding assay σ (non-selective), [3H]DTG, rat cerebral cortex; details: percent inhibition of control specific binding; compounds tested at 1×10^−6 M
Procedure, shortened: as §1

adrenergic α1 receptor = test: Binding assay α1 (non-selective), [3H]prazosin, rat cerebral cortex; details: percent inhibition of control specific binding; compounds tested at 1×10^−6 M
Procedure, shortened: as §1

dopaminergic D2 receptor [2] = target: T2, dopaminergic D2 receptor (Homo sapiens, UniProt P14416); test: Cellular functional assay, dopaminergic D2 receptor (agonism/antagonism); format: cell-based; details: HEK293; for activation at 1 µM: agonist effect, percent of control specific agonist response (3 μM dopamine for control), 1×10^−6 M, D2S (h), HEK-293 cells, read-out: D2-ag [%]; for inhibition at 1 µM: read-out: D2-antag. [%]
Description: (§2) The compounds were tested at the concentration of 1×10^−6M.
(§3) In the Tables ag refers to agonism, and antag to antagonism).
Target sequence in this assay (P14416 whole entry): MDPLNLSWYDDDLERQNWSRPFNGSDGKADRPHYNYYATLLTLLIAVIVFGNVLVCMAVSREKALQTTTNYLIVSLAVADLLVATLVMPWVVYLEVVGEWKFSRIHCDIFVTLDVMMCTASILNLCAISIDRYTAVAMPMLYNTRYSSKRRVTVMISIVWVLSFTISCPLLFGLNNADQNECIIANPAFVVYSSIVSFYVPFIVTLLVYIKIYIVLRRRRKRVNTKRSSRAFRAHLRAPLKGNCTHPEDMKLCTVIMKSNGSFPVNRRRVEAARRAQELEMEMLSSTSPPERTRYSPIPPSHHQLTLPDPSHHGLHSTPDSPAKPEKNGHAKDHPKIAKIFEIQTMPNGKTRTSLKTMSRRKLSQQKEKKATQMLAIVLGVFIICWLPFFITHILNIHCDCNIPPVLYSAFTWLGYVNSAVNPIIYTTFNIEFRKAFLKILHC

[3] = target: T3, serotoninergic 5-HT1A receptor (Homo sapiens, UniProt P08908); test: Cellular functional assay, serotoninergic 5-HT1A receptor (agonism/antagonism); format: cell-based; details: for inhibition at 1 µM: CHO, read-out: 5-HT1A-antag. [%]; for activation at 1 µM: agonist effect, percent of control specific agonist response (100 nM 8-OH-DPAT for control), 1×10^−6 M, 5-HT1A (h), CHO cells, read-out: 5-HT1A-ag [%]
T3 sequence (P08908 1-422): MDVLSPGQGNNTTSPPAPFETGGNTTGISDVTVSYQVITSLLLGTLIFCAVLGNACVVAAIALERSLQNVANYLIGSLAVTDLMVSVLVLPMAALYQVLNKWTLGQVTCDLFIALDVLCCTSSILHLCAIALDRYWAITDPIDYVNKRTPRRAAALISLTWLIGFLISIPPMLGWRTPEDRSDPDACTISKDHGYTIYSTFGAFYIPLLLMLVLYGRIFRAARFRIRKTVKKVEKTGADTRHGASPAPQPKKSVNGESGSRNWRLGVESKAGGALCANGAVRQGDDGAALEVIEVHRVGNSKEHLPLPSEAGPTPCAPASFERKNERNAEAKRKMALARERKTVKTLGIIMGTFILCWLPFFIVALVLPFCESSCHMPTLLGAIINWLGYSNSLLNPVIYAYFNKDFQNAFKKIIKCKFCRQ
Description: as §2, §3

[4] = target: serotoninergic 5-HT7 receptor (Homo sapiens, UniProt P34969); test: Cellular functional assay, serotoninergic 5-HT7 receptor (agonism/antagonism); format: cell-based; details: for activation at 1 µM: agonist effect, percent of control specific agonist response, compounds tested at 1×10^−6M, read-out: 5-HT7-ag [%]; for inhibition at 1 µM: read-out: 5-HT7-antag. [%]
Sequence of serotoninergic 5-HT7 receptor (P34969 whole entry): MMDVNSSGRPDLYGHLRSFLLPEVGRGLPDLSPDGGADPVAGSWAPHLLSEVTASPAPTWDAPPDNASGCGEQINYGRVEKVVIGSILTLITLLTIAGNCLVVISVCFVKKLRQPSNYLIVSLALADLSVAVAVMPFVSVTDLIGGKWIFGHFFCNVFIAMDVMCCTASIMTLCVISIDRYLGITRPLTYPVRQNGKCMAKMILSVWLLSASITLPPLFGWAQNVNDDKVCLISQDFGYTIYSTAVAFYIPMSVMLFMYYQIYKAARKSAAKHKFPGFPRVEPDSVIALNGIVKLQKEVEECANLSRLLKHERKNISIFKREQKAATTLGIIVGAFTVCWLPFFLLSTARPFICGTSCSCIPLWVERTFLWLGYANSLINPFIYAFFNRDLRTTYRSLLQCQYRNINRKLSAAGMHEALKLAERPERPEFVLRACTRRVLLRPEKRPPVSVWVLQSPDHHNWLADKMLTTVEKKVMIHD
Description: as §2, §3

adrenergic α1A receptor = target: T4, adrenergic α1A receptor (Homo sapiens, UniProt P35348); test: Cellular functional assay, adrenergic α1A receptor (agonism/antagonism); format: cell-based; details: for activation at 1 µM: agonist effect, percent of control specific agonist response, compounds tested at 1×10^−6M, read-out: α1A -ag [%]; for inhibition at 1 µM: read-out: α1A -antag. [%]
T4 sequence (P35348 1-466): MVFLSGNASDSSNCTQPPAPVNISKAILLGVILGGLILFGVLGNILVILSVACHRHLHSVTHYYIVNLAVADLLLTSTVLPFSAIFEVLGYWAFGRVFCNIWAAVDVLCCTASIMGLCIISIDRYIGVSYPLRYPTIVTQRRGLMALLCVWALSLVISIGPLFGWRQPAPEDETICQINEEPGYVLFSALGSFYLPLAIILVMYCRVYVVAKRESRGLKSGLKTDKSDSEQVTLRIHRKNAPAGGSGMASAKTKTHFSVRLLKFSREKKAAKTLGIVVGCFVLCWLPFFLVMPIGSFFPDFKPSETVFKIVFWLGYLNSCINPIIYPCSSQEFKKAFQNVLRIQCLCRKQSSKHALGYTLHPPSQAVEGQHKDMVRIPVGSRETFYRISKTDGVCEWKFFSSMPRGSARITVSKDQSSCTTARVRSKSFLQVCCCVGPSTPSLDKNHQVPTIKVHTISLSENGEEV
Description: […]. The compounds were tested at the concentration of 1×10^−6M.
Conditions and methodology (by reference to the literature) of cellular functional assays are given in Table 13 and the tests results for representative compounds are given in Table 14 (dopaminergic receptor D2), in Table 15 (dopaminergic receptor D3), in Table 16 (serotoninergic receptor 5-HT1A), in Table 17 (serotoninergic receptor 5-HT2A), in Table 18 (serotoninergic receptor 5-HT6), in Table 19 (serotoninergic receptor 5-HT7), in Table 20 (adrenergic α1 receptor), in Table 21 (adrenergic α2C receptor), in Table 22 (histaminergic H1 receptor) and in Table 23 (serotoninergic 5-HT2C receptor). In the Tables ag refers to agonism, and antag to antagonism).

dopaminergic D2 receptor [5] = target: T2, dopaminergic D2 receptor; test: Binding assay D2S (h), [3H]methyl-spiperone, HEK-293 cells; set-up: expressed in transfected cells; host or cells: HEK-293 cells; details: read-out: D2 [%]
Procedure, shortened: as §1
Target sequence in this assay (P14416 1-414 isoform P14416-2): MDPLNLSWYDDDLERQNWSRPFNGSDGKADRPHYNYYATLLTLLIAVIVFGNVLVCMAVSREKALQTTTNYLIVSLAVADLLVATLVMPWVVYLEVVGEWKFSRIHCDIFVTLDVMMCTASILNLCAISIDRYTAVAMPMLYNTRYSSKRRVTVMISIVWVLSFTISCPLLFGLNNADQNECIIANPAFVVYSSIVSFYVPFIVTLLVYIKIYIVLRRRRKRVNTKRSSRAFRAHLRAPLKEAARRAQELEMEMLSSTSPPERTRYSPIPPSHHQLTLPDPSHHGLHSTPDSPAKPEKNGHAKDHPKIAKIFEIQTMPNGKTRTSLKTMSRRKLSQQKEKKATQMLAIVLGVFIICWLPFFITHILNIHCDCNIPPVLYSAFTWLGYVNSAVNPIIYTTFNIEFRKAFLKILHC

[6] = target: T3, serotoninergic 5-HT1A receptor; test: Binding assay 5-HT1A (h), [3H]8-OH-DPAT, HEK-293 cells; set-up: expressed in transfected cells; host or cells: HEK-293 cells; details: read-out: 5-HT1A
Procedure, shortened: as §1

[7] = target: serotoninergic 5-HT2A receptor (Homo sapiens, UniProt P28223); test: Binding assay 5-HT2A (h), [3H]ketanserin, HEK-293 cells; set-up: expressed in transfected cells; host or cells: HEK-293 cells; details: read-out: 5-HT2A
Sequence of serotoninergic 5-HT2A receptor (P28223 whole entry): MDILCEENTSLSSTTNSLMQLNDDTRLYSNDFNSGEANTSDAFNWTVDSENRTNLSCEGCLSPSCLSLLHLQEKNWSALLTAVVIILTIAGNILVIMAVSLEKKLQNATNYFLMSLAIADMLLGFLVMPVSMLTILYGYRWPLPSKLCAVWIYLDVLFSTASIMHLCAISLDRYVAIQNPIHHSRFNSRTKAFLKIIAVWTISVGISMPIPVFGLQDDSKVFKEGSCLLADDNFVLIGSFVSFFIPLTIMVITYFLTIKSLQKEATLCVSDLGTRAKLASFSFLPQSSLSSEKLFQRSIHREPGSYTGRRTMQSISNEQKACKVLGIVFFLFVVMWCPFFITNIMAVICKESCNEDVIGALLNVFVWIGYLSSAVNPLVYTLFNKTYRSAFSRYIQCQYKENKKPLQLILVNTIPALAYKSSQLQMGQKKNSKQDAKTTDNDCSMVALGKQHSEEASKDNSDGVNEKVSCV
Procedure, shortened: as §1

[8] = target: histaminergic H1 receptor (Homo sapiens, UniProt P35367); test: Cellular functional assay, histaminergic H1 receptor (agonism/antagonism); format: cell-based; details: for activation at 1 µM: agonist effect, percent of control specific agonist response, compounds tested at 1×10^−6M, read-out: H1 -ag [%]; for inhibition at 1 µM: read-out: H1 -antag. [%]
Sequence of histaminergic H1 receptor (P35367 whole entry): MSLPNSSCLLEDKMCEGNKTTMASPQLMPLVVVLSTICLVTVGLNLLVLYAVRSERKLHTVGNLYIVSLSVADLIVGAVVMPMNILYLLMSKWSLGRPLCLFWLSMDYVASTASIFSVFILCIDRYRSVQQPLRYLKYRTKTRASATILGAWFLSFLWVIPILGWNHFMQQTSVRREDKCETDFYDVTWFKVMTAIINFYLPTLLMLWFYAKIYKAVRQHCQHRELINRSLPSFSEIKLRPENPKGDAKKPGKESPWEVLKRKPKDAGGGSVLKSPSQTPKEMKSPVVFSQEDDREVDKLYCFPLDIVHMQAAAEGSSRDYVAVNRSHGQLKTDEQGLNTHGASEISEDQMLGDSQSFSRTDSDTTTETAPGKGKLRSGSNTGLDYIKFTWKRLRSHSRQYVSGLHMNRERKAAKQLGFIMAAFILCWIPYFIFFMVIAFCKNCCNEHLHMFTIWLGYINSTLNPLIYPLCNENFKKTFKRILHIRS
Description: as §2, §3

T1 sequence (P31645 whole entry): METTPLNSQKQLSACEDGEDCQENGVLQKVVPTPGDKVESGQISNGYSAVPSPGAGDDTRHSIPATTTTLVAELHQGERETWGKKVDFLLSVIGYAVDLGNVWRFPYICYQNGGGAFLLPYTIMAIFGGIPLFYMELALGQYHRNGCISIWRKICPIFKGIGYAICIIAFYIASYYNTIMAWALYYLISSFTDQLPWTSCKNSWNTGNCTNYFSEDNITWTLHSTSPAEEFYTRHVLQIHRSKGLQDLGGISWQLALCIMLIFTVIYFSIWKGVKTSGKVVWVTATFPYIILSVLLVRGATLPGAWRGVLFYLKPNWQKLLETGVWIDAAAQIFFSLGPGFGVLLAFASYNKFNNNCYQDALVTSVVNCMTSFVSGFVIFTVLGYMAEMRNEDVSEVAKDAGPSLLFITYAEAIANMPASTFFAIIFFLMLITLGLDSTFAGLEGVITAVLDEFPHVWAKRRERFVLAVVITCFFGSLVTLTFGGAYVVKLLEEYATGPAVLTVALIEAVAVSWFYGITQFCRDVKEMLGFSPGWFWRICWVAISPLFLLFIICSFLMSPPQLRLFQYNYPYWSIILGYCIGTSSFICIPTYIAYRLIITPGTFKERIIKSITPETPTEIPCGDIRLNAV

SMILES	inhibition at 1 µM [1] [%]	σ [%] (sigma σ receptor)	α1 [%] (adrenergic α1 receptor)	activation at 1 µM (dopaminergic D2 receptor [2]) [%]	inhibition at 1 µM (dopaminergic D2 receptor [2]) [%]	inhibition at 1 µM [3] [%]	activation at 1 µM [3] [%]	activation at 1 µM [4] [%]	inhibition at 1 µM [4] [%]	activation at 1 µM (adrenergic α1A receptor) [%]	inhibition at 1 µM (adrenergic α1A receptor) [%]	inhibition at 1 µM (dopaminergic D2 receptor [5]) [%]	inhibition at 1 µM [6] [%]	inhibition at 1 µM [7] [%]	activation at 1 µM [8] [%]	inhibition at 1 µM [8] [%]
O=S(=O)(NCCCCN1CCN(c2cccc3[nH]ccc23)CC1)c1ccc2ccccc2c1 [Compound 26, N-{4-[4-(1H-Indol-4-yl)piperazin-1-yl]butyl}naphthalene-2-sulphonamide]	14	99	98	29	99	22	67	14	13	0	100	97	100	98		
O=S(=O)(NCCCCN1CCN(c2cccc3[nH]ccc23)CC1)c1ccccc1 [Compound 27, N-{4-[4-(1H-Indol-4-yl)piperazin-1-yl]butyl}benzenesulphonamide]	-3	78	96	40	100	48	56	5	8	1	100	90	99	62		
O=S(=O)(NCCCCN1CCN(c2cccc3[nH]ccc23)CC1)c1cnc2ccccn12 [Compound 30, N-{4-[4-(1H-Indol-4-yl)piperazin-1-yl]butyl}-imidazo[1,2-a]pyridine-3-sulphonamide]	14	42	96	43	97	86	22	5	73	0	97	98	100	67		
O=S(=O)(NCCCCN1CCN(c2cccc3[nH]ccc23)CC1)c1cc2ccccc2s1 [Compound 33, N-{4-[4-(1H-Indol-4-yl)piperazin-1-yl]butyl}-1-benzothiophene-2-sulphonamide]	-4	94	100	37	98	24	63	19	20	0	100	97	100	95		
O=S(=O)(NCCCCN1CCN(c2noc3ccccc23)CC1)c1ccc2cc(Cl)ccc2c1 [Compound 79, N-[4-[4-(1,2-Benzoxazol-3-yl)piperazin-1-yl]butyl]-6-chloro-naphthalene-2-sulphonamide]	3	37	88	3	77			-2	97			99	84	91	0	57
O=S(=O)(NCCCCN1CCN(c2cccc3[nH]ccc23)CC1)c1cccc(Cl)c1 [Compound 113, N-[4-[4-(1H-Indol-4-yl)piperazin-1-yl]butyl]-3-chlorobenzenesulphonamide]	28	92	99	42	94	92	32	9	45	1	100	98	100	69		
O=S(=O)(NCCCCN1CCN(c2noc3ccccc23)CC1)c1ccc(-c2ccccc2)cc1 [Compound 283, N-[4-[4-(1,2-Benzoxazol-3-yl)piperazin-1-yl]butyl]-4-phenylbenzenesulphonamide]	24	34	92					-2	93	0	100	99	89	103	0	41
O=S(=O)(NCCCCN1CCN(c2cccc3[nH]ccc23)CC1)c1ccc(F)cc1 [Compound 359, 4-Fluoro-N-[4-[4-(1H-indol-4-yl)piperazin-1-yl]butyl]benzenesulphonamide]	33	85	97	39	96	94	22	8	43	1	100	96	100	79		
O=S(=O)(NCCCCN1CCN(c2cccc3[nH]ccc23)CC1)c1cc2ccc(Cl)cc2s1 [Compound 363, 6-Chloro-N-[4-[4-(1H-indol-4-yl)piperazin-1-yl]butyl]benzothiophene-2-sulphonamide]	32	96	92	50	94	27	78	6	24	0	100	99	101	98		
O=c1[nH]c2cccc(N3CCN(CCCNS(=O)(=O)c4ccc5ccccc5c4)CC3)c2[nH]1 [Compound 424, N-[3-[4-(2-oxo-1,3-dihydrobenzimidazol-4-yl)piperazin-1-yl]propyl]naphthalene-2-sulphonamide]	-3	−3	93	44	97	75	23	18	43	39	76	97	99	66		
